Experimental data published in ChEMBL document CHEMBL1201862, “PubChem BioAssay data set” (2004).
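Values below derive from 48-hour exposures of cells grown in 96-well plates, with endpoints linearly interpolated between the two concentrations bracketing the appropriate inhibition level. At the GI50, growth is halved.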 Calls of active or inactive are those of the source. Cut-off read from the data, not from the text of the source: active = GI50 up to about 1.1 µM and inactive = higher.

Legend:
Assay in all cases: DTP human tumour cell line panel, 48 h
[1] = system: COLO 205
[2] = system: HOP-92
[3] = system: SW-620
[4] = system: HCC 2998
[5] = system: OVCAR-5
[6] = system: SK-MEL-5
[7] = system: KM12
[8] = system: Hs-578T
[9] = system: SNB-19
[10] = system: NCI/ADR-RES
[11] = system: HT-29
[12] = system: CCRF-CEM
[13] = system: M14
[14] = system: MDA-N
[15] = system: HOP-62
[16] = system: SN12C
[17] = system: UO-31
[18] = system: RXF 393
[19] = system: Malme-3M

| SMILES | GI50 [1] | GI50 [2] | GI50 [3] | GI50 [4] | GI50 [5] | GI50 [6] | GI50 [7] | GI50 [8] | GI50 [9] | GI50 [10] | GI50 [11] | GI50 [12] | GI50 [13] | GI50 [14] | GI50 [15] | GI50 [16] | GI50 [17] | GI50 [18] | GI50 [19] |
| --- | --- | --- | --- | --- | --- | --- | --- | --- | --- | --- | --- | --- | --- | --- | --- | --- | --- | --- | --- |
| COC(=O)c1cc2c(o1)Sc1ccccc1NC2=O | > 100 µM (inactive) | > 100 µM (inactive) | > 100 µM (inactive) | > 100 µM (inactive) | > 100 µM (inactive) | > 100 µM (inactive) | > 100 µM (inactive) | 27.7 µM (inactive) | 35.9 µM (inactive) | > 100 µM (inactive) | > 100 µM (inactive) | > 100 µM (inactive) | > 100 µM (inactive) | > 100 µM (inactive) | 52.1 µM (inactive) | > 100 µM (inactive) |  |  |  |
| COc1cc(/C=C/C=C2\CC(C)C/C(=C\C=C\c3ccc(O)c(OC)c3)C2=O)ccc1O (stereo unspecified) | 16.7 µM (inactive) | 7.23 µM (inactive) | 12.7 µM (inactive) | 17.5 µM (inactive) | 14.4 µM (inactive) | 10.5 µM (inactive) | 31.7 µM (inactive) | 10 µM (inactive) | 23 µM (inactive) | 25.1 µM (inactive) | 4.08 µM (inactive) | 1.14 µM (inactive) | 15.4 µM (inactive) |  | 17.4 µM (inactive) | 31.3 µM (inactive) | 5.06 µM (inactive) | 4.55 µM (inactive) | 9.48 µM (inactive) |
| CCOC(=O)C(NNS(=O)(=O)c1ccc(C)cc1)S(=O)(=O)C(F)(F)C(F)(F)C(F)(F)C(F)(F)F (stereo unspecified) | > 100 µM (inactive) | 54.7 µM (inactive) | > 100 µM (inactive) | > 100 µM (inactive) | > 100 µM (inactive) | > 100 µM (inactive) | > 100 µM (inactive) | 97.3 µM (inactive) | > 100 µM (inactive) | > 100 µM (inactive) | > 100 µM (inactive) | > 10 µM (inactive) | > 100 µM (inactive) | > 100 µM (inactive) | > 100 µM (inactive) | > 100 µM (inactive) | > 100 µM (inactive) |  | > 100 µM (inactive) |
| COc1ccc(C(=O)N2CCN(c3ccc4c(c3)OCC(=O)N4)CC2)cc1 | > 100 µM (inactive) | > 100 µM (inactive) | > 100 µM (inactive) | > 100 µM (inactive) | > 100 µM (inactive) | > 100 µM (inactive) | > 100 µM (inactive) | > 100 µM (inactive) | > 100 µM (inactive) | > 100 µM (inactive) | > 100 µM (inactive) | > 100 µM (inactive) | > 100 µM (inactive) | > 100 µM (inactive) | > 100 µM (inactive) | > 100 µM (inactive) | > 100 µM (inactive) |  | > 100 µM (inactive) |
| CC1(C23CC4CC(CC(C4)C2)C3)n2c(=O)n(-c3ccccc3)c(=O)n2C1(C)C12CC3CC(CC(C3)C1)C2 (stereo unspecified) | > 100 µM (inactive) | > 100 µM (inactive) | > 100 µM (inactive) |  | > 100 µM (inactive) | > 100 µM (inactive) | > 100 µM (inactive) | 18.8 µM (inactive) | > 100 µM (inactive) | > 100 µM (inactive) | > 100 µM (inactive) | > 100 µM (inactive) | > 100 µM (inactive) | > 100 µM (inactive) | > 100 µM (inactive) | > 100 µM (inactive) | > 100 µM (inactive) |  |  |
| CC1=CC2C(C(C)C)CC1C1C(=O)OC(=O)C21 (stereo unspecified) | > 100 µM (inactive) | 65.5 µM (inactive) | 86.9 µM (inactive) | 30.9 µM (inactive) | > 100 µM (inactive) | 85.5 µM (inactive) |  | 75.3 µM (inactive) | > 100 µM (inactive) | 77.3 µM (inactive) | > 100 µM (inactive) |  | > 100 µM (inactive) |  | 99.3 µM (inactive) | 79.3 µM (inactive) | > 100 µM (inactive) | > 100 µM (inactive) | 52 µM (inactive) |
| CC(C)(C)c1ccc(O)c(C(c2ccc([N+](=O)[O-])cc2)c2cc(C(C)(C)C)ccc2O)c1 | 2.5 µM (inactive) | 2.02 µM (inactive) | 2.11 µM (inactive) | 1.95 µM (inactive) | 1.82 µM (inactive) |  | 1.89 µM (inactive) | 3.61 µM (inactive) | 2.41 µM (inactive) | 2.73 µM (inactive) | 1.87 µM (inactive) | 2.98 µM (inactive) | 1.68 µM (inactive) |  | 1.85 µM (inactive) | 2.38 µM (inactive) | 1.95 µM (inactive) | 2.07 µM (inactive) |  |
| CCOC(=O)c1c2c(n(Cc3ccccc3)c1C)C(=O)C(=O)c1ccccc1-2 | 0.705 µM (active) | 0.802 µM (active) | 0.18 µM (active) | 0.56 µM (active) | 0.541 µM (active) | 0.295 µM (active) | 0.574 µM (active) | 0.925 µM (active) | 0.315 µM (active) | 0.466 µM (active) | 0.989 µM (active) | 0.134 µM (active) | 0.452 µM (active) |  | 0.238 µM (active) | 0.171 µM (active) | 0.906 µM (active) | 0.703 µM (active) | 0.0968 µM (active) |
| COC(=O)CCC(NC(=O)C(C)NC(=O)COC1C(O)C(OC(=O)CCNc2c3ccccc3nc3cccc([N+](=O)[O-])c23)OC(OCc2ccccc2)C1NC(C)=O)C(N)=O (stereo unspecified) |  | 4.43 µM (inactive) | 0.114 µM (active) | 2.76 µM (inactive) | > 10 µM (inactive) | 1.61 µM (inactive) | 5.71 µM (inactive) | > 10 µM (inactive) | 5.36 µM (inactive) |  | 2.62 µM (inactive) | > 10 µM (inactive) | 2.79 µM (inactive) | 2.24 µM (inactive) | 3.7 µM (inactive) | 4.2 µM (inactive) | > 10 µM (inactive) | 3.05 µM (inactive) | 2.22 µM (inactive) |
| O=C(O)c1ccc(/C=N\N(CCO)C2=NCCN2)cc1 | > 100 µM (inactive) | > 100 µM (inactive) | > 100 µM (inactive) | > 100 µM (inactive) | > 100 µM (inactive) | > 100 µM (inactive) | > 100 µM (inactive) | > 100 µM (inactive) | > 100 µM (inactive) |  | > 100 µM (inactive) | > 100 µM (inactive) | > 100 µM (inactive) | > 100 µM (inactive) | > 100 µM (inactive) | > 100 µM (inactive) | > 100 µM (inactive) | > 100 µM (inactive) | > 100 µM (inactive) |
| COc1nc2ccc(COc3ccc(C(=O)O)cc3)cc2nc1OC | > 100 µM (inactive) | 47.5 µM (inactive) | 83.8 µM (inactive) | 58.2 µM (inactive) | > 100 µM (inactive) | > 100 µM (inactive) | > 100 µM (inactive) |  | > 100 µM (inactive) | 88.1 µM (inactive) | > 100 µM (inactive) | 36.6 µM (inactive) | 66.1 µM (inactive) | 38.2 µM (inactive) | > 100 µM (inactive) | > 100 µM (inactive) | > 100 µM (inactive) |  | > 100 µM (inactive) |
| CC1=NC2=Nc3nc(C)cc[n+]3CN2C=C1 | 67.5 µM (inactive) | 95.7 µM (inactive) | > 100 µM (inactive) | 58.2 µM (inactive) | > 100 µM (inactive) | 53.3 µM (inactive) |  | > 100 µM (inactive) | > 100 µM (inactive) | > 100 µM (inactive) | 31.8 µM (inactive) |  | > 100 µM (inactive) |  | 89.3 µM (inactive) | 92.5 µM (inactive) | > 100 µM (inactive) | > 100 µM (inactive) | 49.5 µM (inactive) |
| CC(=O)Nc1sccc1S(=O)(=O)c1ccc(Cl)cc1 | > 100 µM (inactive) | > 100 µM (inactive) | > 100 µM (inactive) | > 100 µM (inactive) | > 100 µM (inactive) | > 100 µM (inactive) | > 100 µM (inactive) | > 100 µM (inactive) | > 100 µM (inactive) | > 100 µM (inactive) | > 100 µM (inactive) | > 100 µM (inactive) | > 100 µM (inactive) |  |  | > 100 µM (inactive) | > 100 µM (inactive) | > 100 µM (inactive) | > 100 µM (inactive) |
| CC(C)(C)[Si](C)(C)OCC1OC(n2ccc(=O)[nH]c2=O)C(O[Si](C)(C)C(C)(C)C)/C1=N/O (stereo unspecified) | 2.42 µM (inactive) | 2.77 µM (inactive) | 4.38 µM (inactive) | 3.37 µM (inactive) | 3.9 µM (inactive) | 2.45 µM (inactive) | 3.54 µM (inactive) |  | 4.49 µM (inactive) | 2.49 µM (inactive) | 2.84 µM (inactive) | 3.29 µM (inactive) | 3.33 µM (inactive) | 4.08 µM (inactive) | 4.63 µM (inactive) | 3.3 µM (inactive) | 3.61 µM (inactive) | 8.39 µM (inactive) |  |
| COc1cccc(C2c3cc4c(cc3OC(N3CCOCC3)C2C)OCO4)c1OC (stereo unspecified) | 9.04 µM (inactive) |  | 5.4 µM (inactive) | 10.4 µM (inactive) | 13.1 µM (inactive) | 9.59 µM (inactive) | 5.68 µM (inactive) | 4.26 µM (inactive) | 3.81 µM (inactive) | 4.58 µM (inactive) | 2.96 µM (inactive) | 4.52 µM (inactive) | 9.1 µM (inactive) | 13.7 µM (inactive) | 11.4 µM (inactive) | 8.07 µM (inactive) | 7.03 µM (inactive) |  |  |
| C/C(=C1/N=C(c2ccccc2)OC1=O)c1ccc(C)cc1 | > 100 µM (inactive) | > 100 µM (inactive) | > 100 µM (inactive) | > 100 µM (inactive) | > 100 µM (inactive) | > 100 µM (inactive) | > 100 µM (inactive) | > 100 µM (inactive) | > 100 µM (inactive) |  | > 100 µM (inactive) | > 100 µM (inactive) | > 100 µM (inactive) | > 100 µM (inactive) | > 100 µM (inactive) | > 100 µM (inactive) |  | > 100 µM (inactive) | > 100 µM (inactive) |
